We go through 12 molecules from ChEMBL document CHEMBL1201862, “PubChem BioAssay data set” (2004).

Some test systems named below: MDA-N; SNB-75; SF-268; COLO 205; TK-10; MOLT-4; Hs-578T; SK-MEL-2; CCRF-CEM; HCT-15; SF-295; OVCAR-4; SNB-19; KM12; 786-0; SW-620; PC-3; NCI-H226; A498.
Assay in all cases: growth of human tumour cells (NCI), 48 h

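The compound was tested at five concentrations on cells cultured in 96-well plates, with a 48-hour exposure period. GI50 is the concentration that inhibits growth by half.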 Active and inactive are the calls of the source. Cut-off read from the data, not from the text of the source: active = GI50 up to about 1.1 µM and inactive = higher.

In the case of `O=c1oc2ccc3ccccc3c2cc1-c1cn2ccsc2n1`, the GI50 with MDA-N is 21.4 µM (inactive); in the assay on SNB-75 it was > 100 µM (inactive); in the assay with SF-268 it was 24.8 µM (inactive); in the assay with COLO 205 it was 16.1 µM (inactive); with TK-10 it was 17.9 µM (inactive); in the assay on MOLT-4, 3.41 µM (inactive). Moreover, the GI50 was 45.1 µM (inactive) with Hs-578T; > 100 µM (inactive) with SK-MEL-2; 3.89 µM (inactive) in the assay with CCRF-CEM; 16 µM in the assay on HCT-15; 78.2 µM (inactive) with SF-295; 19.6 µM (inactive) with OVCAR-4. For the same molecule, the GI50 was > 100 µM (inactive) in the assay on SNB-19; 20.6 µM (inactive) in the assay on KM12; 17.9 µM (inactive) in the assay with 786-0; 16.8 µM (inactive) in the assay with SW-620; 26.7 µM (inactive) in the assay with PC-3.
As for `Cc1cc(C)c2c(c1)C/C(=C\c1cccc(C)c1C(=O)O)C2=O`, the GI50 in the assay on MDA-N was 35.3 µM (inactive); in the assay with SNB-75, 55 µM (inactive); in the assay with SF-268 it was 24.4 µM (inactive); in the assay on NCI-H226, 44.2 µM (inactive); in the assay on TK-10, > 100 µM (inactive); with MOLT-4 it was 50.5 µM (inactive). Further, the GI50 in the assay on SK-MEL-2 is 89.9 µM (inactive); in the assay with CCRF-CEM it was 36.6 µM (inactive); with A498, 63.1 µM (inactive); with HCT-15, 49.5 µM; in the assay on SF-295, 78 µM (inactive); with OVCAR-4 it was 75 µM (inactive). Besides, the GI50 in the assay with SNB-19 is 59.6 µM (inactive); in the assay with KM12, 51.6 µM (inactive); with 786-0 it was 57.3 µM (inactive); with SW-620 it was 64.4 µM (inactive); in the assay on PC-3, 39.5 µM (inactive).
In the case of `ClCCCC1COc2ccccc2O1` (stereo not drawn), the GI50 in the assay on MDA-N is > 100 µM (inactive); in the assay with SNB-75, > 100 µM (inactive); with SF-268 it was 96.6 µM (inactive); in the assay with NCI-H226, > 100 µM (inactive); in the assay with COLO 205, > 100 µM (inactive); in the assay on TK-10, > 100 µM (inactive). In addition, the GI50 in the assay with MOLT-4 is > 100 µM (inactive); in the assay with CCRF-CEM, > 100 µM (inactive); in the assay on HCT-15, more than 100 µM; in the assay on SF-295, > 100 µM (inactive); in the assay with OVCAR-4, > 100 µM (inactive); with SNB-19, > 100 µM (inactive). In addition, the GI50 in the assay with 786-0, in the assay with SW-620 and with PC-3 was > 100 µM (inactive) each time.
On to `Cc1ccc(-c2c(C#N)c(-c3ccccc3)n(NS(=O)(=O)c3ccccc3)c(=O)c2C#N)cc1`, for which the GI50 in the assay with MDA-N is 92.7 µM (inactive); in the assay with SNB-75, 67.6 µM (inactive); with SF-268 it was 63.1 µM (inactive); in the assay on NCI-H226 it was > 100 µM (inactive); in the assay on COLO 205, > 100 µM (inactive); in the assay with TK-10, > 100 µM (inactive). The GI50 in the assay on MOLT-4 was 20.7 µM (inactive); with SK-MEL-2 it was > 100 µM (inactive); with CCRF-CEM, 32.1 µM (inactive); in the assay with A498, > 100 µM (inactive); in the assay on HCT-15, 60 µM; with SF-295, 60.7 µM (inactive). In addition, the GI50 in the assay on OVCAR-4 is > 100 µM (inactive); in the assay with SNB-19 it was 76 µM (inactive); with KM12 it was 89.3 µM (inactive); with 786-0, > 100 µM (inactive); in the assay with SW-620 it was 86.3 µM (inactive); in the assay with PC-3 it was 48.1 µM (inactive).
Regarding `COc1nc2c(c(=O)n1C)N=C(c1ccccc1)[C@H](C(CC(=O)c1ccccc1)c1ccccc1)C(c1ccccc1)N2` (stereo partly drawn), the GI50 was 35.8 µM (inactive) in the assay with MDA-N; 10 µM (inactive) with SNB-75; 69.2 µM (inactive) in the assay on NCI-H226; 98.9 µM (inactive) with COLO 205; 19.5 µM (inactive) in the assay with MOLT-4; > 100 µM (inactive) in the assay on SK-MEL-2. Moreover, the GI50 with CCRF-CEM is > 100 µM (inactive); in the assay with A498 it was > 100 µM (inactive); with SF-295 it was 70 µM (inactive); with OVCAR-4 it was 20.1 µM (inactive); in the assay with SNB-19, > 100 µM (inactive); with KM12, 30.8 µM (inactive). The values for the GI50 in the assay with 786-0, with SW-620 and in the assay on PC-3 were 76.4 µM (inactive), > 100 µM (inactive) and 42 µM (inactive), respectively.
On to `COc1ccc(/N=C2\C(=N/c3ccc(OC)cc3)N(c3ccccc3[N+](=O)[O-])C(=S)N2c2ccc(OC)cc2)cc1`, for which the GI50 in the assay on MDA-N was 49.8 µM (inactive); in the assay on SNB-75, > 100 µM (inactive); in the assay with SF-268, > 100 µM (inactive); in the assay with NCI-H226, 61.9 µM (inactive); with COLO 205, 17.1 µM (inactive); in the assay with TK-10 it was > 100 µM (inactive). The GI50 with MOLT-4 is 21.8 µM (inactive); in the assay with Hs-578T, > 100 µM (inactive); with SK-MEL-2, > 100 µM (inactive); with HCT-15, more than 100 µM; with SF-295 it was 51.8 µM (inactive); in the assay on SNB-19 it was > 100 µM (inactive). Further, the GI50 was > 100 µM (inactive) with KM12, > 100 µM (inactive) in the assay with 786-0, > 100 µM (inactive) with SW-620 and 91.6 µM (inactive) with PC-3.
As for `COc1cccc(/N=N/C(=NNC(=O)c2ccc(C)cc2)c2ccc(N(C)C)cc2)c1`, the GI50 is 39.7 µM (inactive) with MDA-N; > 100 µM (inactive) in the assay on SF-268; > 100 µM (inactive) with NCI-H226; 44.3 µM (inactive) with COLO 205; > 100 µM (inactive) in the assay on TK-10; > 100 µM (inactive) with MOLT-4. Besides, the GI50 in the assay on Hs-578T was > 100 µM (inactive); in the assay on SK-MEL-2 it was > 100 µM (inactive); in the assay with CCRF-CEM, > 100 µM (inactive); in the assay on HCT-15, more than 100 µM; with SF-295 it was > 100 µM (inactive); with OVCAR-4, > 100 µM (inactive). The GI50 in the assay on SNB-19, with KM12, with 786-0, in the assay with SW-620 and with PC-3 was > 100 µM (inactive) in each case.
Take `COc1cc(CNC2=NCCC2)cc(OC)c1OC`: the GI50 is 34.5 µM (inactive) in the assay with MDA-N; > 100 µM (inactive) in the assay with SNB-75; > 100 µM (inactive) in the assay on SF-268; > 100 µM (inactive) in the assay with NCI-H226; > 100 µM (inactive) in the assay on COLO 205; > 100 µM (inactive) in the assay with TK-10. Moreover, the GI50 is > 100 µM (inactive) in the assay on MOLT-4; > 100 µM (inactive) in the assay on CCRF-CEM; more than 100 µM in the assay on HCT-15; > 100 µM (inactive) in the assay with SF-295; > 100 µM (inactive) in the assay with OVCAR-4; > 100 µM (inactive) in the assay on SNB-19. Further, the GI50 in the assay with KM12 is > 10 µM (inactive); in the assay on 786-0, > 100 µM (inactive); with SW-620, > 100 µM (inactive); in the assay with PC-3, > 100 µM (inactive).
In the case of `CS/C(=N/S(=O)(=O)c1ccc(Cl)cc1)NCCCN/C(=N\S(=O)(=O)c1ccc(Cl)cc1)SC`, the GI50 was 12.1 µM (inactive) in the assay with MDA-N; 15.8 µM (inactive) with SNB-75; 9.48 µM (inactive) in the assay on SF-268; 21.5 µM (inactive) in the assay with COLO 205; 14.5 µM (inactive) in the assay on TK-10; 4.8 µM (inactive) in the assay on MOLT-4. The GI50 in the assay on SK-MEL-2 was 14.2 µM (inactive); in the assay with CCRF-CEM, 16.7 µM (inactive); with A498, 8.43 µM (inactive); with HCT-15, 7.76 µM; with SF-295, 12.7 µM (inactive); with OVCAR-4, 3.56 µM (inactive). The GI50 in the assay with SNB-19 is 80.7 µM (inactive); in the assay with 786-0 it was 25.2 µM (inactive); in the assay with SW-620 it was 45.6 µM (inactive); in the assay on PC-3, 4.62 µM (inactive).
On to `COC(=O)C(Cc1c(C2Nc3ccccc3C2CC(NC(=O)CNC(C)=O)C(=O)OC)[nH]c2ccccc12)NC(=O)CNC(C)=O` (stereo not drawn), for which the GI50 in the assay with MDA-N is > 100 µM (inactive); in the assay with SNB-75, 7.82 µM (inactive); in the assay with SF-268, > 100 µM (inactive); in the assay on NCI-H226 it was > 100 µM (inactive); in the assay on COLO 205 it was > 100 µM (inactive); in the assay on TK-10, > 100 µM (inactive). Also, the GI50 was > 72.6 µM (inactive) in the assay with Hs-578T; > 86.9 µM (inactive) in the assay on SK-MEL-2; > 100 µM (inactive) in the assay with CCRF-CEM; > 100 µM (inactive) in the assay with A498; more than 100 µM with HCT-15; > 100 µM (inactive) with SF-295. Also, the GI50 in the assay with OVCAR-4, in the assay on SNB-19, in the assay on KM12, in the assay with 786-0 and with SW-620 was > 100 µM (inactive) in each case.
For the molecule `CS(=O)(=O)OCOS(C)(=O)=O`, the GI50 with MDA-N is > 100 µM (inactive); in the assay with NCI-H226, 40.6 µM (inactive); with COLO 205, 75.3 µM (inactive); in the assay on TK-10, > 100 µM (inactive); with MOLT-4 it was 22.9 µM (inactive); in the assay with SK-MEL-2 it was > 100 µM (inactive). In addition, the GI50 with CCRF-CEM is 18.5 µM (inactive); in the assay with A498 it was > 100 µM (inactive); in the assay on HCT-15, 59.3 µM; in the assay with SF-295, > 100 µM (inactive); in the assay with OVCAR-4, > 100 µM (inactive); with SNB-19 it was > 100 µM (inactive). The GI50 was > 100 µM (inactive) in the assay on KM12, > 100 µM (inactive) with 786-0, 34.4 µM (inactive) in the assay on SW-620 and > 100 µM (inactive) with PC-3.
Take `COc1cc2cc(C(=O)N3CC(CCl)c4c3cc(NC(=O)C(C)Nc3c([N+](=O)[O-])cc(C(=O)NCCN(C)C)cc3[N+](=O)[O-])c3ccccc43)[nH]c2c(OC)c1OC` (stereo not drawn): the GI50 is 0.158 µM (active) in the assay with MDA-N; 0.0272 µM (active) in the assay on SNB-75; 0.0202 µM (active) in the assay on SF-268; 0.113 µM (active) in the assay with NCI-H226; 0.0515 µM (active) in the assay on COLO 205; 0.333 µM (active) with TK-10. Also, the GI50 was 0.0244 µM (active) in the assay with MOLT-4; 0.0675 µM (active) with SK-MEL-2; < 0.01 µM (active) in the assay with CCRF-CEM; 0.212 µM (active) in the assay on A498; 0.164 µM in the assay on HCT-15; 0.129 µM (active) in the assay with SF-295. The GI50 was 0.191 µM (active) in the assay on OVCAR-4; 0.14 µM (active) with SNB-19; 0.119 µM (active) in the assay on KM12; 0.0204 µM (active) in the assay on 786-0; 0.117 µM (active) in the assay with SW-620; 0.177 µM (active) in the assay with PC-3.
